Data taken from patent publication US10653688B2, “6-(6-membered heteroaryl and aryl)isoquinolin-3-yl carboxamides and preparation and use thereof” (Samumed, LLC, priority 2017, dated 2020).
Like-named read-outs stand apart in the source and are kept apart here.

Columns and labels:
[1] = tested on: Wnt activity (SW480 colon carcinoma cells stably expressing the Sp5-Luc reporter gene); assay: Wnt activity screening assay (Sp5-Luc reporter gene assay); assay type: cell-based, human; details: Homo sapiens; for EC50: 36 to 48 hours; for inhibition at 10 µM: read-out: percent inhibition at 10 μM (given for EC50 >10 μM), 10 μM
Procedure, shortened: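 EC50 values come from a variable-slope four-parameter fit of luminescence normalized to DMSO-only wells. The read-out follows 36–48 h incubation at 37 °C, 5% CO2, in DMEM containing 1% fetal bovine serum. Cells are hygromycin-selected SW480 stably expressing firefly luciferase under a Wnt-responsive Sp5 promoter (eight TCF/LEF sites).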

[2] = tested on: IL-6 in human peripheral blood mononuclear cells (huPBMCs); assay: IL-6 inhibition in LPS-stimulated human peripheral blood mononuclear cells (HTRF); assay type: cell-based; details: Homo sapiens, PBMC; for EC50: LPS 50 ng/mL, 22 hours, IL-6 HTRF; for inhibition at 10 µM: read-out: percent inhibition at 10 μM (given for EC50 >10 μM), LPS, IL-6, 10 μM
Procedure, shortened: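 Compound-treated huPBMCs (1×10e6 cells/mL, 1% FBS-RPMI) were stimulated after 2 h with LPS (50 ng/mL) for another 22 h at 37° C. An anti-IL-6 HTRF pair reported IL-6 as the 665/620 nm ratio; activity relative to DMSO, EC50 by 4-parameter Levenberg-Marquardt fitting, duplicates.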

[3] = tested on: secreted cytokines TNFα, IL-6 and KC-GRO in BV-2 cells (mouse microglial cells); assay: Secreted cytokines in lipopolysaccharide-stimulated mouse glial cell line; assay type: cell-based; details: LPS 250 ng/mL 5 hours, table does not say which cytokine
Procedure, shortened: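 BV-2 cells seeded at 35,000/well were pretreated overnight with compound (10 μM to 4.6 nM final), then stimulated 5 h with 250 ng/mL E. coli O111:B4 LPS. Supernatant TNFα, IL-6 and KC-GRO were quantified by electrochemiluminescence against standard curves (pg/mL) to fit EC50. Cytotoxicity was checked by CellTiter-Glo ATP read-out.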

[4] = tested on: LL29 cells (primary human fibroblasts derived from IPF patients), α-smooth muscle actin; assay: Inhibition of fibrotic process: TGF-β1-treated primary human fibroblasts, αSMA staining; assay type: cell-based; details: Homo sapiens, Fibroblast; for EC50: 96 h, TGF-β1 20 ng/mL, 4 days, % cells positive for αSMA; for inhibition at 10 µM: read-out: percent inhibition at 10 μM (given for EC50 >10 μM), TGF-β1, αSMA, 10 μM;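 on all read-outs here: controls were TGF-β1-stimulated wells with DMSO vehicle as the positive reference and cells given DMSO alone as the negative reference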
recombinant GSK3β kinase = recombinant GSK3β kinase (Homo sapiens (Human), UniProt P49841); assay: GSK3β kinase assay (Ser/Thr 09 peptide Z-lyte, FRET); assay type: biochemical;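 further: FRET read-out as coumarin over fluorescein emission ratio, compounds incubated one hour at room temperature, IC50 from dose-response curve fit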
Sequence of recombinant GSK3β kinase (P49841 whole entry): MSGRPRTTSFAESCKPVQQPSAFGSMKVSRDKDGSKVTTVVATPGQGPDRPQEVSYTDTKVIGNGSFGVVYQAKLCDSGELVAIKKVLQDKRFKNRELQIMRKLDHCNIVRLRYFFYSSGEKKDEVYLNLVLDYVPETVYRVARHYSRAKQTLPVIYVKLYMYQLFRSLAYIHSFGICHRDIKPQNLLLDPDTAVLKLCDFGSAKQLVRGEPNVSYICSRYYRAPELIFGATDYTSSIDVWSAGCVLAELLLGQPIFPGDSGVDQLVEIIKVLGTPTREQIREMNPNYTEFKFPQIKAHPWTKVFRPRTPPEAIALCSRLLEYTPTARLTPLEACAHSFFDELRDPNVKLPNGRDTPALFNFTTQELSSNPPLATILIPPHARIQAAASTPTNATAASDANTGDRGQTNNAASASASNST

[5] = GSK3β kinase, head says EC50, method says IC50, ATP 46 μM

`CN1CCN(CC(=O)Nc2cc3cc(-c4cccnc4)c(F)cc3cn2)CC1` [Compound 145, N-(7-Fluoro-6-(pyridin-3-yl)isoquinolin-3-yl)-2-(4-methylpiperazin-1-yl) acetamide] was tested. Which EC50 [1] did it give?
Its EC50 is greater than 10000 nM.

And the inhibition at 10 µM [1]?
The inhibition at 10 µM was 26.2%.

What about the EC50 [2] of the same molecule?
Its EC50 is greater than 10000 nM.

What about the inhibition at 10 µM [2] of the same molecule?
The inhibition at 10 µM was 5.9%.

What about the EC50 [3] of the same molecule?
Its EC50 is 157 nM.

And the EC50 [4]?
The EC50 was 6520 nM.

And the EC50 (recombinant GSK3β kinase; [5])?
Its EC50 is 2890 nM.

What does the source list for `Cc1cncc(-c2ccc3cnc(NC(=O)CN4CCOCC4)cc3c2)c1` [Compound 146, N-(6-(5-Methylpyridin-3-yl)isoquinolin-3-yl)-2-morpholinoacetamide]?
EC50 [1]: > 10000 nM; inhibition at 10 µM [1]: 38.5%; EC50 [2]: > 10000 nM; inhibition at 10 µM [2]: 0%; EC50 [3]: 201 nM; EC50 [4]: > 10000 nM; inhibition at 10 µM [4]: 23.8%; EC50 (recombinant GSK3β kinase; [5]): 623 nM

Which results are given for `COc1cncc(-c2ccc3cnc(NC(=O)CN4CCOCC4)cc3c2)c1` [Compound 147, N-(6-(5-Methoxypyridin-3-yl)isoquinolin-3-yl)-2-morpholinoacetamide]?
EC50 [1]: > 10000 nM; inhibition at 10 µM [1]: 38.8%; EC50 [2]: > 10000 nM; inhibition at 10 µM [2]: 14.7%; EC50 [3]: 628 nM; EC50 [4]: > 10000 nM; inhibition at 10 µM [4]: 24.4%; EC50 (recombinant GSK3β kinase; [5]): 1020 nM

For `[2H]C1([2H])OC([2H])([2H])C([2H])([2H])N(CC(=O)Nc2cc3cc(-c4cccnc4)ccc3cn2)C1([2H])[2H]` [Compound 151, 2-(Morpholino-d8)-N-(6-(pyridin-3-yl)isoquinolin-3-yl)acetamide], which EC50 [1] is on record?
The EC50 was greater than 10000 nM.

And the inhibition at 10 µM [1]?
Its inhibition at 10 µM is 10.7%.

And the EC50 [2]?
Its EC50 is greater than 10000 nM.

What about the inhibition at 10 µM [2] of the same molecule?
The inhibition at 10 µM was 6%.

And the EC50 [3]?
Its EC50 is 198 nM.

And the EC50 [4]?
Its EC50 is greater than 10000 nM.

And the inhibition at 10 µM [4]?
Its inhibition at 10 µM is 21.2%.

What about the EC50 (recombinant GSK3β kinase) of the same molecule?
Its EC50 is 795 nM.
